HELM strings list units from the 5' end as sugar, base in round brackets, then linkage (d deoxyribose, r ribose, m 2'-O-methyl, p phosphodiester). Strings are as the collection lists them, not checked against the first reports. ss, as = sense and antisense strand; [fl2r] = 2'-fluoro
Settings: siRNA
Note: test system not given here.

RNA1{r(A)p.r(C)p.r(C)p.r(U)p.m(U)p.r(A)p.r(A)p.r(G)p.r(G)p.r(A)p.r(C)p.r(C)p.r(A)p.r(C)p.r(C)p.r(G)p.r(G)p.r(A)p.r(U)p.r(T)p.r(T)}|RNA2{r(A)p.r(U)p.r(C)p.r(C)p.r(G)p.r(G)p.r(U)p.r(G)p.r(G)p.r(U)p.r(C)p.r(C)p.r(U)p.m(U)p.r(A)p.r(A)p.r(G)p.r(G)p.r(U)p.r(T)p.r(T)}$$$RNA1{StrandType:ss}|RNA2{StrandType:as}$
target mRNA knockdown: 74%

RNA1{r(A)p.r(C)p.r(C)p.r(U)p.r(U)p.r(U)p.r(C)p.m(C)p.r(A)p.r(C)p.r(U)p.r(U)p.r(C)p.m(U)p.r(A)p.r(A)p.r(G)p.r(C)p.r(C)p.r(T)p.r(T)}|RNA2{r(G)p.r(G)p.r(C)p.r(U)p.m(U)p.r(A)p.r(G)p.r(A)p.r(A)p.r(G)p.m(U)p.r(G)p.r(G)p.r(A)p.r(A)p.r(A)p.r(G)p.r(G)p.r(U)p.r(T)p.r(T)}$$$RNA1{StrandType:ss}|RNA2{StrandType:as}$
target mRNA knockdown: 75%

RNA1{r(A)p.r(C)p.r(C)p.r(U)p.r(U)p.r(U)p.r(C)p.r(C)p.r(A)p.r(C)p.r(U)p.r(U)p.r(C)p.r(U)p.r(A)p.r(A)p.r(G)p.r(C)p.r(C)p.r(T)p.r(T)}|RNA2{r(G)p.r(G)p.r(C)p.m(U)p.m(U)p.r(A)p.r(G)p.r(A)p.r(A)p.r(G)p.m(U)p.r(G)p.r(G)p.r(A)p.r(A)p.r(A)p.r(G)p.r(G)p.m(U)p.r(T)p.r(T)}$$$RNA1{StrandType:ss}|RNA2{StrandType:as}$
target mRNA knockdown: 80%

RNA1{r(A)p.r(C)p.r(G)p.r(G)p.r(C)p.r(U)p.r(C)p.r(G)p.r(C)p.[fl2r](U)p.r(A)p.r(C)p.r(C)p.r(C)p.r(U)p.r(C)p.r(G)p.r(A)p.r(C)p.r(T)p.r(T)}|RNA2{r(G)p.r(U)p.r(C)p.r(G)p.r(A)p.r(G)p.r(G)p.r(G)p.[fl2r](U)p.r(A)p.r(G)p.r(C)p.r(G)p.r(A)p.r(G)p.r(C)p.r(C)p.r(G)p.r(U)p.r(T)p.r(T)}$$$RNA1{StrandType:ss}|RNA2{StrandType:as}$
target mRNA knockdown: 78%

RNA1{r(A)p.r(C)p.r(G)p.r(G)p.r(C)p.r(U)p.r(C)p.r(G)p.r(C)p.r(U)p.[fl2r](A)p.r(C)p.r(C)p.r(C)p.r(U)p.r(C)p.r(G)p.r(A)p.r(C)p.r(T)p.r(T)}|RNA2{r(G)p.r(U)p.r(C)p.r(G)p.r(A)p.r(G)p.r(G)p.r(G)p.r(U)p.r(A)p.r(G)p.r(C)p.r(G)p.r(A)p.r(G)p.r(C)p.r(C)p.r(G)p.r(U)p.r(T)p.r(T)}$$$RNA1{StrandType:ss}|RNA2{StrandType:as}$
target mRNA knockdown: 83%

RNA1{r(A)p.r(C)p.r(G)p.r(U)p.m(C)p.r(A)p.r(C)p.r(C)p.r(G)p.r(A)p.r(G)p.r(G)p.r(A)p.r(G)p.r(A)p.r(A)p.r(G)p.m(U)p.m(A)p.r(T)p.r(T)}|RNA2{m(U)p.m(A)p.r(C)p.r(U)p.r(U)p.r(C)p.r(U)p.r(C)p.r(C)p.r(U)p.r(C)p.r(G)p.r(G)p.m(U)p.r(G)p.r(A)p.r(C)p.r(G)p.r(U)p.r(T)p.r(T)}$$$RNA1{StrandType:ss}|RNA2{StrandType:as}$
target mRNA knockdown: 74%

RNA1{r(A)p.r(C)p.r(G)p.r(U)p.m(C)p.r(A)p.r(C)p.r(C)p.r(G)p.r(A)p.r(G)p.r(G)p.r(A)p.r(G)p.r(A)p.r(A)p.r(G)p.m(U)p.r(A)p.r(T)p.r(T)}|RNA2{r(U)p.r(A)p.r(C)p.r(U)p.r(U)p.r(C)p.r(U)p.r(C)p.r(C)p.r(U)p.r(C)p.r(G)p.r(G)p.m(U)p.r(G)p.r(A)p.r(C)p.r(G)p.r(U)p.r(T)p.r(T)}$$$RNA1{StrandType:ss}|RNA2{StrandType:as}$
target mRNA knockdown: 48%

RNA1{r(A)p.r(C)p.r(G)p.r(U)p.m(C)p.r(A)p.r(C)p.r(C)p.r(G)p.r(A)p.r(G)p.r(G)p.r(A)p.r(G)p.r(A)p.r(A)p.r(G)p.r(U)p.r(A)p.r(T)p.r(T)}|RNA2{m(U)p.r(A)p.r(C)p.r(U)p.r(U)p.r(C)p.r(U)p.r(C)p.r(C)p.r(U)p.r(C)p.r(G)p.r(G)p.m(U)p.r(G)p.r(A)p.r(C)p.r(G)p.r(U)p.r(T)p.r(T)}$$$RNA1{StrandType:ss}|RNA2{StrandType:as}$
target mRNA knockdown: 80%

RNA1{r(A)p.r(C)p.r(G)p.r(U)p.r(C)p.r(A)p.r(C)p.r(C)p.r(G)p.r(A)p.r(G)p.r(G)p.r(A)p.r(G)p.r(A)p.r(A)p.r(G)p.m(U)p.r(A)p.r(T)p.r(T)}|RNA2{r(U)p.r(A)p.r(C)p.r(U)p.r(U)p.r(C)p.r(U)p.r(C)p.r(C)p.r(U)p.r(C)p.r(G)p.r(G)p.r(U)p.r(G)p.r(A)p.r(C)p.r(G)p.r(U)p.r(T)p.r(T)}$$$RNA1{StrandType:ss}|RNA2{StrandType:as}$
target mRNA knockdown: 69%

RNA1{r(A)p.r(G)p.[fl2r](U)p.r(A)p.r(A)p.[fl2r](U)p.[fl2r](C)p.[fl2r](C)p.r(G)p.r(G)p.r(A)p.[fl2r](C)p.[fl2r](U)p.[fl2r](C)p.r(A)p.r(A)p.[fl2r](C)p.[fl2r](U)p.[fl2r](C)p.r(T)p.r(T)}|RNA2{r(G)p.r(A)p.r(G)p.r(U)p.r(U)p.r(G)p.r(A)p.r(G)p.r(U)p.r(C)p.r(C)p.r(G)p.r(G)p.r(A)p.r(U)p.r(U)p.r(A)p.r(C)p.r(U)p.r(T)p.r(T)}$$$RNA1{StrandType:ss}|RNA2{StrandType:as}$
target mRNA knockdown: 59%

RNA1{r(A)p.r(G)p.[fl2r](U)p.r(A)p.r(A)p.r(U)p.r(C)p.r(C)p.r(G)p.r(G)p.r(A)p.r(C)p.r(U)p.[fl2r](C)p.r(A)p.r(A)p.r(C)p.r(U)p.r(C)p.r(T)p.r(T)}|RNA2{r(G)p.r(A)p.r(G)p.r(U)p.[fl2r](U)p.r(G)p.r(A)p.r(G)p.r(U)p.r(C)p.r(C)p.r(G)p.r(G)p.r(A)p.r(U)p.[fl2r](U)p.r(A)p.r(C)p.r(U)p.r(T)p.r(T)}$$$RNA1{StrandType:ss}|RNA2{StrandType:as}$
target mRNA knockdown: 68%

RNA1{r(A)p.r(G)p.[fl2r](U)p.r(A)p.r(A)p.r(U)p.r(C)p.r(C)p.r(G)p.r(G)p.r(A)p.r(C)p.r(U)p.r(C)p.r(A)p.r(A)p.r(C)p.r(U)p.r(C)p.r(T)p.r(T)}|RNA2{r(G)p.r(A)p.r(G)p.r(U)p.r(U)p.r(G)p.r(A)p.r(G)p.r(U)p.r(C)p.r(C)p.r(G)p.r(G)p.r(A)p.r(U)p.[fl2r](U)p.r(A)p.r(C)p.r(U)p.r(T)p.r(T)}$$$RNA1{StrandType:ss}|RNA2{StrandType:as}$
target mRNA knockdown: 69%

RNA1{r(A)p.r(G)p.m(A)p.r(G)p.r(A)p.r(G)p.r(G)p.m(U)p.r(G)p.r(G)p.r(A)p.r(G)p.r(G)p.m(U)p.r(A)p.r(U)p.r(C)p.r(U)p.r(C)p.r(T)p.r(T)}|RNA2{r(G)p.r(A)p.r(G)p.r(A)p.m(U)p.r(A)p.r(C)p.r(C)p.r(U)p.r(C)p.m(C)p.r(A)p.r(C)p.r(C)p.r(U)p.m(C)p.r(U)p.r(C)p.r(U)p.r(T)p.r(T)}$$$RNA1{StrandType:ss}|RNA2{StrandType:as}$
target mRNA knockdown: 87%

RNA1{r(A)p.r(G)p.r(A)p.m(U)p.r(G)p.r(U)p.r(U)p.r(C)p.r(U)p.r(C)p.r(G)p.m(U)p.r(A)p.r(A)p.r(G)p.r(G)p.r(A)p.r(C)p.r(G)p.r(T)p.r(T)}|RNA2{r(C)p.r(G)p.r(U)p.r(C)p.r(C)p.r(U)p.m(U)p.r(A)p.r(C)p.r(G)p.r(A)p.r(G)p.r(A)p.r(A)p.m(C)p.r(A)p.r(U)p.r(C)p.r(U)p.r(T)p.r(T)}$$$RNA1{StrandType:ss}|RNA2{StrandType:as}$
target mRNA knockdown: 60%

RNA1{r(A)p.r(G)p.r(A)p.r(A)p.r(A)p.m(C)p.r(G)p.m(C)p.r(A)p.r(G)p.m(U)p.r(A)p.r(A)p.m(U)p.m(C)p.m(C)p.r(G)p.r(G)p.r(A)p.r(T)p.r(T)}|RNA2{m(U)p.m(C)p.m(C)p.r(G)p.r(G)p.r(A)p.m(U)p.m(U)p.r(A)p.m(C)p.m(U)p.r(G)p.m(C)p.r(G)p.m(U)p.m(U)p.m(U)p.m(C)p.m(U)p.r(T)p.r(T)}$$$RNA1{StrandType:ss}|RNA2{StrandType:as}$
target mRNA knockdown: 80%

RNA1{r(A)p.r(G)p.r(A)p.r(A)p.r(A)p.r(A)p.r(G)p.m(C)p.r(A)p.r(G)p.r(C)p.r(G)p.r(A)p.m(U)p.r(A)p.r(C)p.r(G)p.r(C)p.r(U)p.r(T)p.r(T)}|RNA2{r(A)p.r(G)p.r(C)p.r(G)p.r(U)p.r(A)p.r(U)p.r(C)p.r(G)p.r(C)p.m(U)p.r(G)p.r(C)p.r(U)p.r(U)p.r(U)p.r(U)p.r(C)p.r(U)p.r(T)p.r(T)}$$$RNA1{StrandType:ss}|RNA2{StrandType:as}$
target mRNA knockdown: 68%

RNA1{r(A)p.r(G)p.r(A)p.r(A)p.r(A)p.r(A)p.r(G)p.r(C)p.r(A)p.r(G)p.r(C)p.r(G)p.r(A)p.m(U)p.r(A)p.r(C)p.r(G)p.r(C)p.r(U)p.r(T)p.r(T)}|RNA2{r(A)p.r(G)p.r(C)p.r(G)p.r(U)p.r(A)p.r(U)p.r(C)p.r(G)p.r(C)p.r(U)p.r(G)p.r(C)p.r(U)p.r(U)p.r(U)p.r(U)p.r(C)p.r(U)p.r(T)p.r(T)}$$$RNA1{StrandType:ss}|RNA2{StrandType:as}$
target mRNA knockdown: 69%

RNA1{r(A)p.r(G)p.r(A)p.r(A)p.r(A)p.r(C)p.r(G)p.m(C)p.r(A)p.r(G)p.m(U)p.m(A)p.r(A)p.r(U)p.r(C)p.r(C)p.r(G)p.r(G)p.r(A)p.r(T)p.r(T)}|RNA2{r(U)p.r(C)p.r(C)p.r(G)p.r(G)p.r(A)p.r(U)p.m(U)p.r(A)p.r(C)p.m(U)p.r(G)p.r(C)p.r(G)p.r(U)p.r(U)p.r(U)p.r(C)p.r(U)p.r(T)p.r(T)}$$$RNA1{StrandType:ss}|RNA2{StrandType:as}$
target mRNA knockdown: 78%

RNA1{r(A)p.r(G)p.r(A)p.r(A)p.r(A)p.r(C)p.r(G)p.m(C)p.r(A)p.r(G)p.m(U)p.r(A)p.r(A)p.r(U)p.r(C)p.r(C)p.r(G)p.r(G)p.r(A)p.r(T)p.r(T)}|RNA2{r(U)p.r(C)p.r(C)p.r(G)p.r(G)p.r(A)p.r(U)p.m(U)p.r(A)p.r(C)p.m(U)p.r(G)p.r(C)p.r(G)p.r(U)p.r(U)p.r(U)p.r(C)p.r(U)p.r(T)p.r(T)}$$$RNA1{StrandType:ss}|RNA2{StrandType:as}$
target mRNA knockdown: 81%

RNA1{r(A)p.r(G)p.r(A)p.r(A)p.r(A)p.r(C)p.r(G)p.r(C)p.r(A)p.r(G)p.m(U)p.m(A)p.r(A)p.r(U)p.r(C)p.r(C)p.r(G)p.r(G)p.r(A)p.r(T)p.r(T)}|RNA2{r(U)p.r(C)p.r(C)p.r(G)p.r(G)p.r(A)p.r(U)p.m(U)p.r(A)p.r(C)p.r(U)p.r(G)p.r(C)p.r(G)p.r(U)p.r(U)p.r(U)p.r(C)p.r(U)p.r(T)p.r(T)}$$$RNA1{StrandType:ss}|RNA2{StrandType:as}$
target mRNA knockdown: 85%
